# Data published in BindingDB's records for patent US9828374 (Hoffmann-La Roche, 2017).
# pKi: −log10 of the molar value.
# Target: Trace amine-associated receptor 1 (Mus musculus, UniProt Q923Y8)
# Assay: Radioligand Binding Assay
# Protocol: Nonspecific binding was defined as the amount of [H]-(S)-4-[(ethyl-phenyl-amino)-methyl]-4,5-dihydro-oxazol-2-ylamine bound in the presence of 10 μM unlabeled ligand. All compounds were tested at a broad range of concentrations ([…]) in duplicates.
# Sequence of Trace amine-associated receptor 1 (Q923Y8 whole entry): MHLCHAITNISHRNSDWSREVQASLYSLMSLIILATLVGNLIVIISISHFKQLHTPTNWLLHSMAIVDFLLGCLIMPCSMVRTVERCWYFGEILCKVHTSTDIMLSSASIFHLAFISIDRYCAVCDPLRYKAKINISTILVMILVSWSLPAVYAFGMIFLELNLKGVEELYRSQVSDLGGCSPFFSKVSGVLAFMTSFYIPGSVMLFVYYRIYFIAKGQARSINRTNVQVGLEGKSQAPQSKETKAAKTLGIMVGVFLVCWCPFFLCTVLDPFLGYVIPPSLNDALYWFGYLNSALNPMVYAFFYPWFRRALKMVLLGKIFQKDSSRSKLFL
row,Compound,pKi
1,"Brc1ccc2c(c1)CCN1CCNC[C@@H]21 [US9828374, Example 2]",6.74
2,"O=C(Nc1ccc2c(c1)CCN1CCNC[C@@H]21)c1cnc(C(F)(F)F)nc1 [US9828374, Example 4]",6.72
3,"Cc1cc(Nc2ccc3c(c2)CCN2CCNC[C@@H]32)nc(OCC(F)(F)F)n1 [US9828374, Example 26]",7.39
4,"Fc1c(Nc2cc(Cl)nc(C(F)(F)F)n2)ccc2c1CCN1CCNC[C@@H]21 [US9828374, Example 34]",7.10
